{"source": "patent US10202420B2", "about": "“Methods and compositions for treatment of cartilage and disc tissue pathologies” (THE ROYAL INSTITUTION FOR ADVANCEMENT OF LEARNING/MCGILL …, priority 2013, dated 2019)", "assay_type_in_all_cases": "cell-based", "key": {"[1]": {"tested_on": "bovine annulus fibrosus (AF) cells", "test": "Proteoglycan synthesis by 35SO4 incorporation, cells in alginate beads", "conditions": "48 h", "procedure": "(§1) Human and bovine IVDs were separated from the adjoining vertebral body and divided into NP and AF for bovine IVDs and NP and inner annulus fibrosus (iAF) for human IVDs. Tissue from the human outer annulus fibrosus (oAF) was not used for cell isolation in this study. Cells were enzymatically isolated from each region as previously described (63). Briefly, NP and AF tissues were dissected into approximately 2-mm thick pieces, washed twice in PBS containing 50 μg/mL gentamicin, […] and 0.25 μg/mL fungizone, then digested with 0.2% pronase for 1 h, followed by collagenase type IA at 0.01% for NP and 0.04% for AF tissue for 4 h in serum free DMEM.\n(§2) To compare the metabolic response to the various Link N peptides, freshly isolated human and bovine cells from NP and AF regions were embedded in 1.2% alginate beads, as previously described (65). Cells in alginate beads were cultured at 37° C., 5% CO2 in DMEM, containing 4.5 g/L glucose and supplemented with 10% FCS, 25 mmol/L HEPES, 50 μg/mL gentamicin sulphate, 0.25 μg/mL fungizone, 50 μg/mL L-ascorbate, and 2 mmol/L GlutaMAX. The beads were stabilized for 7 days and cell viability was assessed by Live/Dead® assay prior to further treatment. 5 beads per well were then cultured in 48 well plates in the presence of equimolar concentrations of either Link N (1 μg/mL), R-Link N (1 μg/mL), S-Link N (1 μg/mL), Link N 1-8 (0.5 μg/mL) or Link N 9-16 (0.5 μg/mL) in 0.5 mL DMEM. 25 μCi/mL ^35SO4 was added to the medium to allow assessment of proteoglycan synthesis (66). In addition, beads were exposed for 48 h to IL-1β (10 ng/mL) alone, or to a combination of peptides and IL-1β (51). At the end of the culture period, medium was collected and dialyzed exhaustively against miliQ water at […] (Spectra/Por® 3), followed by cold chase with 1M MgSO4 for 2 h to remove any remaining unincorporated ^35SO4. The ^35SO4 incorporation was measured using a beta scintillation counter (Beckman Coulter LS6500, Beckman Coulter, Mississauga, Canada)."}, "[2]": {"tested_on": "bovine nucleus pulposus (NP) cells", "test": "Proteoglycan synthesis by 35SO4 incorporation, cells in alginate beads", "conditions": "48 h", "procedure": "as §1, §2"}, "type II collagen": {"tested_on": "type II collagen", "test": "Type II collagen by Western blot, bovine disc organ culture", "conditions": "degenerated bovine discs, 2 weeks post Link N 1-8 treatment", "text": "(§3) The largest first 3-4 caudal discs were isolated from the tails of 24- to 30-month-old steers, as described previously (21,22). Briefly, the tails were dissected free of skin, muscles and ligaments, and pedicles for each segment were removed. The bone and the adjacent calcified part of the cartilaginous endplate were removed, so that the surface of the disc was soft and flexible without detectable calcified tissue. After the discs were rinsed in PBS supplemented with 1,000 U/mL penicillin, 1,000 μg/mL streptomycin and 0.25 μg/mL fungizone (GIBCO, Burlington, Canada), they were preconditioned for 3 days in sterile 80 mL specimen containers (STARPLEX Scientific, Etobicoke, Canada) containing 50 mL culture medium. (DMEM with 2 mM Glutamax and 25 mM Hepes, supplemented with 5% FBS, 100 U/mL penicillin, 100 μg/mL streptomycin, 50 μg/mL L-ascorbate). Degeneration was induced by a single injection of 100 μg trypsin (Sigma-Aldrich) dissolved in 75 μL PBS into the center of the disc using a 28 G½ needle (21) The needle was placed on top of the disc to measure the distance needed to reach the center and was then inserted to the same depth. […] The number of MSCs used was based on a study by Liebscher et al (23), which measured the cell density of healthy human discs. […]\n(§4) The remaining nucleus pulposus (NP) tissue was collected and the wet weight was recorded (21). […]"}, "aggrecan core protein": {"tested_on": "aggrecan core protein", "test": "Aggrecan core protein by Western blot, bovine disc organ culture", "conditions": "degenerated bovine discs, 2 weeks post Link N 1-8 treatment", "text": "as §3, §4"}, "[3]": {"tested_on": "human inner annulus fibrosus (iAF) cells", "test": "Proteoglycan synthesis by 35SO4 incorporation, cells in alginate beads", "conditions": "human AF (iAF) cells, 48 h", "procedure": "(§5) Human thoracolumbar spines were retrieved through the Transplant Quebec organ donation program. Discs were obtained from 7 donors, 1 male and 6 female, with a mean age of 29.6 years and an age range of 16 to 47 years (Table 1). Donors having had recent chemotherapy, radiation therapies to the spine, or significant long-standing paralysis were excluded from the study. Spine retrieval was performed within 8 h of death. Discs with calcification and loss of disc height were not included in the study. All procedures were approved by the institutional review board of the Montreal General Hospital.\nas §1, §2"}, "[4]": {"tested_on": "human nucleus pulposus (NP) cells", "test": "Proteoglycan synthesis by 35SO4 incorporation, cells in alginate beads", "conditions": "48 h", "procedure": "as §5, §1, §2"}, "[5]": {"tested_on": "bovine discs with trypsin-induced degeneration", "test": "Proteoglycan (GAG, DMMB) concentration in bovine disc organ culture with trypsin-induced degeneration", "conditions": "degenerated bovine discs, 2 weeks post Link N 1-8 treatment", "text": "as §3, with “L-ascorbate).” for “L-ascorbate). Degeneration was induced by a single injection of 100 μg trypsin (Sigma-Aldrich) dissolved in 75 μL PBS into the center of the disc using a 28 G½ needle (21) The needle was placed on top of the disc to measure the distance needed to reach the center and was then inserted to the same depth.”\nas §4\nSulfated glycosaminoglycans (GAGs) were quantified in tissue extracts by a modified dimethyl methylene blue (DMMB) dye-binding assay (25,26). […]"}, "[6]": {"conditions": "16-mer peptides 1 μg/mL, 8-mer peptides 0.5 μg/mL, vs medium alone"}, "[7]": {"conditions": "IL-1β 10 ng/mL, vs IL-1-containing medium"}}, "data": [{"sequence": "DHLSDNYT [Link N 1-8, Link-N first 8 peptide residues]", "values": [{"measurement": "proteoglycan synthesis (35SO4 incorporation)", "setting": "[1]; [6]", "value": "statistically significant increase"}, {"measurement": "proteoglycan synthesis (35SO4 incorporation) in the presence of IL-1β", "setting": "[1]; [7]", "value": "significantly induced proteoglycan production to the same extent as native Link N"}, {"measurement": "proteoglycan synthesis (35SO4 incorporation)", "setting": "[2]; [6]", "value": "statistically significant increase"}, {"measurement": "proteoglycan synthesis (35SO4 incorporation) in the presence of IL-1β", "setting": "[2]; [7]", "value": "significantly induced proteoglycan production to the same extent as native Link N"}, {"measurement": "type II collagen expression", "setting": "type II collagen", "value": "statistically significant increase"}, {"measurement": "aggrecan expression", "setting": "aggrecan core protein", "value": "statistically significant increase"}, {"measurement": "proteoglycan synthesis (35SO4 incorporation)", "setting": "[3]; [6]", "value": "significant increase"}, {"measurement": "proteoglycan synthesis (35SO4 incorporation) in the presence of IL-1β", "setting": "[3]; [7]", "value": "significantly increased response"}, {"measurement": "proteoglycan synthesis (35SO4 incorporation)", "setting": "[4]; [6]", "value": "significant increase"}, {"measurement": "proteoglycan synthesis (35SO4 incorporation) in the presence of IL-1β", "setting": "[4]; [7]", "value": "significantly increased response"}, {"measurement": "proteoglycan synthesis (proteoglycan concentration in the discs)", "setting": "[5]", "value": "statistically significant increase"}]}]}
